Calls of active or inactive are those of the source.
Experiments:
[1] = molecular target: T1, E3 ubiquitin-protein ligase XIAP (Homo sapiens, UniProt P98170); test: Counter Screen using XIAP-Bir3 for Chemical Antagonists of Bir1/2 domains of IAP-family anti-apoptotic proteins. [Related pubchem assays (depositor defined):AID1018, AID1449, AID1514, AID1638, AID1749, AID1750, AID488957, AID488963]
14-3-3 protein gamma = 14-3-3 protein gamma (Homo sapiens, UniProt P61981); test: modulators of 14-3-3 gamma client binding – dose response (AID 711); type: functional
[2] = molecular target: T1, E3 ubiquitin-protein ligase XIAP; test: XIAP antagonists, biochemical, IAP family, fluorescence polarization (AID 1018); type: functional
HEK293 [3] = test: cells; type: functional, cell-based; conditions: Homo sapiens
Aspartyl aminopeptidase = Aspartyl aminopeptidase (Plasmodium falciparum 3D7, UniProt Q8I2J3); test: Counterscreen for inhibitors of M1 and M17 aminopeptidases: QFRET-based biochemical high throughput dose response assay for inhibitors of the Plasmodium falciparum M18 Aspartyl Aminopeptidase (PFM18AAP). [Related PubChem assays: 1619 (Screening assay (M17LAP inhibitors).), 1445 (Screening assay (M1AAP inhibitors).)]
Chain of Aspartyl aminopeptidase (Q8I2J3 whole entry): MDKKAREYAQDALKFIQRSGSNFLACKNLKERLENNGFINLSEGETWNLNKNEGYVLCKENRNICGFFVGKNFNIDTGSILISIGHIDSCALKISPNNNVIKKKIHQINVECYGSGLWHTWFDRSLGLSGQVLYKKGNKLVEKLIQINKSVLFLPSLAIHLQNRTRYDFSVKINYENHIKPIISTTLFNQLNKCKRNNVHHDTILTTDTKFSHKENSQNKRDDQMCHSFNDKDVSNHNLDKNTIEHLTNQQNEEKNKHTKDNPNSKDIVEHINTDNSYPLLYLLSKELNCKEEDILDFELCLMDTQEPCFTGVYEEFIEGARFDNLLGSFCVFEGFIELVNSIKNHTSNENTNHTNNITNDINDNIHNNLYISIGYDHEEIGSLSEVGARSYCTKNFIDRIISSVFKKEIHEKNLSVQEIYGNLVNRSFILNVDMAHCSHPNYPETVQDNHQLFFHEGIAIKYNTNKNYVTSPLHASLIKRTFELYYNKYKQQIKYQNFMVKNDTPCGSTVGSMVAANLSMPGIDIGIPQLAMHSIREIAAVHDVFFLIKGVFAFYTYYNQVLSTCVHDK

Procathepsin L = Procathepsin L (Homo sapiens, UniProt P07711); test: cathepsin L inhibitors, dose response, counter-screen for M1/M17 aminopeptidase inhibitor project, biochemical, QFRET, 1536-well (AID 2214)
Chain of Procathepsin L (P07711 whole entry): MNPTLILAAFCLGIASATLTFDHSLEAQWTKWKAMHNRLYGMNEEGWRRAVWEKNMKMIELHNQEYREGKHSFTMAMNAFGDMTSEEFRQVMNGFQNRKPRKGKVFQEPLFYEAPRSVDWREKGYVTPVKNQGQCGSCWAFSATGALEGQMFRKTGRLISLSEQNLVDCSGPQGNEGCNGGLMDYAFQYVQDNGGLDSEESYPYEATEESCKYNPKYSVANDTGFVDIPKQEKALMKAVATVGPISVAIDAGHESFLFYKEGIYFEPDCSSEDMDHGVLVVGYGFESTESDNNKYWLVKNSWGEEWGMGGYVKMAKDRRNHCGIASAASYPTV

HEK293 [4] = test: cells; type: functional, cell-based; conditions: Homo sapiens; remark: listed apart in the source
HEK293 [5] = test: NOD1 signaling inhibitors, primary screen, cell-based, luminescence, uHTS (AID 1578); type: functional; conditions: Homo sapiens
Aminopeptidase N = molecular target: T2, Aminopeptidase N (Plasmodium falciparum FcB1/Columbia, UniProt O96935); test: P. falciparum M1AAP inhibitors, biochemical, fluorogenic H-Leu-NHMec substrate, 1536-well (AID 1445); design: species or system Plasmodium falciparum 3D7, 3D7
T2 sequence (O96935 whole entry): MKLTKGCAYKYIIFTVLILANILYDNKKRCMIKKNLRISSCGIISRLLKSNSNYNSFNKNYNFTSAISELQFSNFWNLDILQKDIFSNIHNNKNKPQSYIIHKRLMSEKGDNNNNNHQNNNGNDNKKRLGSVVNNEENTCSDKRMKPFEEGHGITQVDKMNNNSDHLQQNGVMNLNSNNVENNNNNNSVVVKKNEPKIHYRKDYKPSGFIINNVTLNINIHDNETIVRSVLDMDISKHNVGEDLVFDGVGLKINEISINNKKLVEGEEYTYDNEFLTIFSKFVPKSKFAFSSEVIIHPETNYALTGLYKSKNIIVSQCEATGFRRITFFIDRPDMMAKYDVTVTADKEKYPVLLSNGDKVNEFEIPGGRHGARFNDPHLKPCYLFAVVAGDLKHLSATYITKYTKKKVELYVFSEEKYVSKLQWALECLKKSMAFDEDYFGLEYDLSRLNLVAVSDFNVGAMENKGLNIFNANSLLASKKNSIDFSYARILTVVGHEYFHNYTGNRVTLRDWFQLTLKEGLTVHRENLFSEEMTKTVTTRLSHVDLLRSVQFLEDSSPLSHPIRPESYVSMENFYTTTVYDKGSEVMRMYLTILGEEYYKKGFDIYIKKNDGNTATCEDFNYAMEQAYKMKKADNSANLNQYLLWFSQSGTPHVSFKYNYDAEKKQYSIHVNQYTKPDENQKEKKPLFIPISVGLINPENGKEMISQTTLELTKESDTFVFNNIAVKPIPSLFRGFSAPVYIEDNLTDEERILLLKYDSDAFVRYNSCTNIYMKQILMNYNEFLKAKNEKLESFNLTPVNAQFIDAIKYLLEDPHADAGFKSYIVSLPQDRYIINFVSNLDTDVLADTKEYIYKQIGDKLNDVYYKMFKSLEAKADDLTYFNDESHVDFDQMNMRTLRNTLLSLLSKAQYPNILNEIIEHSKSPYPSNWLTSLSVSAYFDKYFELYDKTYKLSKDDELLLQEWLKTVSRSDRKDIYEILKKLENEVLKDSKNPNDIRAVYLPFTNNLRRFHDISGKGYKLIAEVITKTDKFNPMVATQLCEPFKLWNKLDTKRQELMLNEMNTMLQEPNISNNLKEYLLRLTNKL

[6] = molecular target: T3, Calpain-2 catalytic subunit (Sus scrofa, UniProt P43367); test: pig calpain II inhibitor potency, dose response, biochemical, fluorogenic peptide substrate (AID 1420); type: functional
T3 sequence (P43367 whole entry): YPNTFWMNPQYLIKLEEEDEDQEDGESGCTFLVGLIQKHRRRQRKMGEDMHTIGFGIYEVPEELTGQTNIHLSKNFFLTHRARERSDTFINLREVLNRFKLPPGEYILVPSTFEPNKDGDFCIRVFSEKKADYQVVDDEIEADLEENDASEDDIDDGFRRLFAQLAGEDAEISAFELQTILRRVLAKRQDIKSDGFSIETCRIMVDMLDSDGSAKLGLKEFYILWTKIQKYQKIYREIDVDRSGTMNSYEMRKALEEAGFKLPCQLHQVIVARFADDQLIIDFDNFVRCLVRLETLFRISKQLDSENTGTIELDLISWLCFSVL

HEK293 [7] = test: NOD2 signaling inhibitors in MDP-stimulated cells, cell-based, uHTS, luminescence (AID 2001); type: functional; conditions: Homo sapiens
[8] = molecular target: 72 kDa type IV collagenase (Homo sapiens, UniProt P08253); test: Dose Response validation of uHTS RPN11 inhibitor hits using a MMP-2 Fluorescence assay.; type: functional
Chain of 72 kDa type IV collagenase (P08253 whole entry): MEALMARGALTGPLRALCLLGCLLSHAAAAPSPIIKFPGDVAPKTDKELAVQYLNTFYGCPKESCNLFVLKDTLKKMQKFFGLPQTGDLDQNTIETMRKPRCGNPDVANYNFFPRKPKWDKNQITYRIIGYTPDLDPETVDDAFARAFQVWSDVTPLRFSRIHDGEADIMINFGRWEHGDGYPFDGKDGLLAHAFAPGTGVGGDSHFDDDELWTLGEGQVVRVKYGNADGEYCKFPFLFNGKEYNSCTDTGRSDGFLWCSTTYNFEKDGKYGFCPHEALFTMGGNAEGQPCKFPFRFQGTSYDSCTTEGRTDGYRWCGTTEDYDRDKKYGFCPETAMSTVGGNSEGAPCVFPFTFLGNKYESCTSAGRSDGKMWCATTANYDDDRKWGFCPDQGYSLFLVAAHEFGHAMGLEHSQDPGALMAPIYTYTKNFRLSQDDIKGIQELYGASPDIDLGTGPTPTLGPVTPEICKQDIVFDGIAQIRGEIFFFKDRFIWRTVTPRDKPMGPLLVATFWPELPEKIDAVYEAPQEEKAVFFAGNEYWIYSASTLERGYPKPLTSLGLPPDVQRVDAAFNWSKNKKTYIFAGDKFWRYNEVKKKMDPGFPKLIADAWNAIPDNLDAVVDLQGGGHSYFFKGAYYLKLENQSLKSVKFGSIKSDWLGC

[9] = molecular target: Delta-type opioid receptor (Homo sapiens, UniProt P41143); test: Counterscreen for agonists of heterodimerization of the mu 1 (OPRM1) and delta 1 (OPRD1) opioid receptors: Luminescence-based cell-based high throughput dose response assay to identify agonists of OPRD1 homodimerization. [Related pubchem assays (depositor defined):AID504326, AID504355, AID504692, AID504904, AID504905]; type: functional
[10] = molecular target: Peroxisome proliferator-activated receptor gamma/Nuclear receptor coactivator 3 (Homo sapiens, UniProt P37231); type: functional;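 also: agonist potency for raising coactivator recruitment to the receptor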
[11] = inhibitors of intracellular T. cruzi replication, confirmation, NIH3T3 host cells, beta-gal luminescence (AID 2044); type: functional, cell-based;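 also: intracellular parasites grown in NIH/3T3 mouse fibroblasts as host cells; luminescent beta-galactosidase reporter signal from transgenic T. cruzi replicating inside host cells; inhibitors lower the luminescence signal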
[12] = molecular target: 5-hydroxytryptamine receptor 5A (Homo sapiens, UniProt P47898); test: Counterscreen for agonists of OPRM1-OPRD1 heterodimerization: luminescence-based cell-based high throughput dose response assay to identify agonists of 5-hydroxytryptamine (serotonin) 5A receptor (HTR5A). [Related pubchem assays (depositor defined):AID504326, AID504355, AID504692, AID504904, AID504905]; type: functional
Chain of 5-hydroxytryptamine receptor 5A (P47898 whole entry): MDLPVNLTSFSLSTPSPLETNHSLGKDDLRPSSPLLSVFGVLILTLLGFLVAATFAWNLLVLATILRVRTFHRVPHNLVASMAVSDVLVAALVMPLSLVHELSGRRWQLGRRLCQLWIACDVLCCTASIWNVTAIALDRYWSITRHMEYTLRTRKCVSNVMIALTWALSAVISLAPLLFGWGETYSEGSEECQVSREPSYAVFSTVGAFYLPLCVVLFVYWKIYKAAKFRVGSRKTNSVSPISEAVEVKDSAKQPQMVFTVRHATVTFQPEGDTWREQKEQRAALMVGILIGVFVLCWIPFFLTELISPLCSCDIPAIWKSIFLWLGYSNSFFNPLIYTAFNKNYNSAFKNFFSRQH

[13] = molecular target: Peroxisome proliferator-activated receptor gamma/Nuclear receptor coactivator 2 (Homo sapiens, UniProt P37231); type: functional;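 also: agonist potency for raising coactivator recruitment to the receptor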
[14] = cytotoxicity toward NIH3T3 fibroblasts, dose response, counter-screen, cell-based, ATP luminescence, mouse fibroblasts (AID 2010); type: functional;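 also: cells exposed to compound for about 90 hours before reading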
[15] = molecular target: 26S proteasome non-ATPase regulatory subunit 14 (Homo sapiens, UniProt O00487); test: inhibition of proteasome subunit RPN11 – biochemical, fluorescence polarization, uHTS hits, confirmation (AID 602368); type: functional
Prothrombin = Prothrombin (Bos taurus, UniProt P00735); test: thrombin inhibition, dose response, biochemical, fluorescence polarization, uHTS hits (AID 602369); type: functional
[16] = Luminescence Cell-Based Dose Response HTS to Identify Inhibitors of 5'UTR Stem-Loop Driven Prion Protein mRNA Translation in H4 Neuroglioblastoma Cells. [Related pubchem assays: 1827 (Project Summary), 1813 (Primary HTS)]; type: functional
[17] = molecular target: Protein-tyrosine kinase 2-beta (Homo sapiens, UniProt Q14289);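 also: potency of inhibitors of PYK2 kinase phosphorylation of poly-GT substrate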
Chain of Protein-tyrosine kinase 2-beta (Q14289 whole entry): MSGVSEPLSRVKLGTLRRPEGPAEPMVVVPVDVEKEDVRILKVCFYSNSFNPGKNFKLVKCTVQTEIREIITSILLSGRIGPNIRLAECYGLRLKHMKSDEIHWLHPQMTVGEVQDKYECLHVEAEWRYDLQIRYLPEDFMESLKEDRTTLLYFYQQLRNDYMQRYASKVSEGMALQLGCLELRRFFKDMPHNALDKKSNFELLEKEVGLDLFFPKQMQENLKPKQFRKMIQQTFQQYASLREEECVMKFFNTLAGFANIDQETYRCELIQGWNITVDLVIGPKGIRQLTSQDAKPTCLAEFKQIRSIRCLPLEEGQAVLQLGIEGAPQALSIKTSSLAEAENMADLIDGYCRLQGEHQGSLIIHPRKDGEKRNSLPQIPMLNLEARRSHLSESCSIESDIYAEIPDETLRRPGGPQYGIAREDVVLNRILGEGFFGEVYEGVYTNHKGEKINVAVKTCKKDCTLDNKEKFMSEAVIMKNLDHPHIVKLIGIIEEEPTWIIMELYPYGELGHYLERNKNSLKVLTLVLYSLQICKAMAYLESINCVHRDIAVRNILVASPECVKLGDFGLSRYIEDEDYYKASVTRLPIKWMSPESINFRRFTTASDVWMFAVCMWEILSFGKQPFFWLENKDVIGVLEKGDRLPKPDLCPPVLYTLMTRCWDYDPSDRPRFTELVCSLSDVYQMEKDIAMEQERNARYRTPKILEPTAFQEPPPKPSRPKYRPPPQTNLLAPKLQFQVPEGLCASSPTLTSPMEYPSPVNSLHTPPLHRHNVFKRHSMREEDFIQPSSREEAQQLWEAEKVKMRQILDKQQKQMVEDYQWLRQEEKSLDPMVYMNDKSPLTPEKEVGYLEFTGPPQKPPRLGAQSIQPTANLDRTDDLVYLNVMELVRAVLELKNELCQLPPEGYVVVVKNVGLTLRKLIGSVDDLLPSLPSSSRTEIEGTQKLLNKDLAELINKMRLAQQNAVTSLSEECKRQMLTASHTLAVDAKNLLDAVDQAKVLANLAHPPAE

[18] = molecular target: Peroxisome proliferator-activated receptor gamma/Nuclear receptor coactivator 1 (Homo sapiens, UniProt P37231); type: functional;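 also: agonist potency as compounds enhance coactivator SRC-1 recruitment to PPARgamma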
Mu-type opioid receptor = Mu-type opioid receptor (Homo sapiens, UniProt P35372); test: Counterscreen for agonists of heterodimerization of the mu 1 (OPRM1) and delta 1 (OPRD1) opioid receptors: Luminescence-based cell-based high throughput dose response assay to identify agonists of OPRM1 homodimerization.; type: functional;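 also: U2OS cells expressing OPRM1 and beta-arrestin as split beta-galactosidase partners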
Chain of Mu-type opioid receptor (P35372 whole entry): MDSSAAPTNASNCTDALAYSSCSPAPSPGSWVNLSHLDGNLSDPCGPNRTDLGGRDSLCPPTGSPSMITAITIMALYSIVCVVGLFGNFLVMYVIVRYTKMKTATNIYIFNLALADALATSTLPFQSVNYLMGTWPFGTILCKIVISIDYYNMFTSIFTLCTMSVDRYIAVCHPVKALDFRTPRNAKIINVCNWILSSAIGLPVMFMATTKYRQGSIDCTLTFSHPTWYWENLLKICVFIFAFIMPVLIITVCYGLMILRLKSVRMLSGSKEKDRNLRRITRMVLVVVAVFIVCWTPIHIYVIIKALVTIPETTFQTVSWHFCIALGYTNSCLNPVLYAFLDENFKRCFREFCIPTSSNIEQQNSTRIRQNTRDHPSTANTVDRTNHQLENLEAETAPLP

[19] = molecular target: COUP transcription factor 2 (Homo sapiens, UniProt P24468); test: Luminescence-based cell-based high throughput dose response assay to identify inhibitors of COUP-TFII (NR2F2).; type: functional;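 also: HEK293 cells transiently cotransfected with COUP-TFII expression vector and reporter; luciferase reporter luminescence driven by COUP-TFII from the pX2-168 reporter plasmid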
cells = type: functional, cell-based; conditions: HEK-CNG
Galanin receptor type 2 = Galanin receptor type 2 (Homo sapiens, UniProt O43603); test: Dose Response cell-based high-throughput screening assay to identify antagonists of galanin receptor 2 (GALR2). [Related pubchem assays: 828, 866 ]; type: functional
[20] = molecular target: T4, Heat shock factor protein 1 (Mus musculus, UniProt P38532); test: inhibition of MG132-induced HSE-luciferase signal, confirmation, cell-based, NIH3T3, luminescence, dose retest (AID 2382); type: functional;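 also: NIH3T3 fibroblasts with HSF1-driven luciferase reporter stressed by proteasome inhibitor MG132; luminescence from HSF1-driven luciferase expression after 8 hours of MG132 stress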
T4 sequence (P38532 whole entry): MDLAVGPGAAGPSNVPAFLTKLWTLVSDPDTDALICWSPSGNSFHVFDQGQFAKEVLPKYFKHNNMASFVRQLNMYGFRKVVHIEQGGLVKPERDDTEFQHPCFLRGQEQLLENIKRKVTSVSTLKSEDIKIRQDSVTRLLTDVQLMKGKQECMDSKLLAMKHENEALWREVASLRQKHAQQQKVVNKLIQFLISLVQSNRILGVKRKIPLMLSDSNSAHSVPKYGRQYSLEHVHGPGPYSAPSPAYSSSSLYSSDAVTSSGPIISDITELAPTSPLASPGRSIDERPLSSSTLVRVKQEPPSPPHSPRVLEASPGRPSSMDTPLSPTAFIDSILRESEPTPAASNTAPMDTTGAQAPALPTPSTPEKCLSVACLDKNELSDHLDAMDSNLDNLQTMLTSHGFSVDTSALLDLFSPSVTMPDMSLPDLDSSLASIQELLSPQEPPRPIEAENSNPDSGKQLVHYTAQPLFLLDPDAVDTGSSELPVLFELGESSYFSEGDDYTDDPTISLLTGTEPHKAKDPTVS

Galanin receptor type 3 = Galanin receptor type 3 (Homo sapiens, UniProt O60755); test: Fluorescence-based cell-based primary high throughput dose response assay to identify antagonists of the Galanin Receptor 3 (GalR3).; type: functional
Chain of Galanin receptor type 3 (O60755 whole entry): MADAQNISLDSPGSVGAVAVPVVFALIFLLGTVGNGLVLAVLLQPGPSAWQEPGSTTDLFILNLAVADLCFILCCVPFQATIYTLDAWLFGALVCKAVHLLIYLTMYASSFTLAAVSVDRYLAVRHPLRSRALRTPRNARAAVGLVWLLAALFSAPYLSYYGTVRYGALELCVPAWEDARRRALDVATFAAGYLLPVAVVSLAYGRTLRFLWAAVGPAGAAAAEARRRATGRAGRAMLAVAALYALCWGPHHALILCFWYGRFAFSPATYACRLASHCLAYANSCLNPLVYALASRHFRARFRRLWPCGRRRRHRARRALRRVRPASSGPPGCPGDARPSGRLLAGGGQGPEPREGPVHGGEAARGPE

[21] = A High Throughput Confirmatory Assay used to Identify Novel Compounds that Inhibit Mycobacterium Tuberculosis in the absence of Glycerol.; type: functional
[22] = M. tuberculosis H37Rv growth inhibitors, H37Rv strain (AID 1626); type: functional
[23] = molecular target: Sphingosine 1-phosphate receptor 2 (Homo sapiens, UniProt O95136); test: Dose Response Cell Based Assay for Agonists of the S1P2 Receptor of Purchased Analogues. [Related pubchem assays: 729, 843, 854, 736 ]; type: functional
Chain of Sphingosine 1-phosphate receptor 2 (O95136 whole entry): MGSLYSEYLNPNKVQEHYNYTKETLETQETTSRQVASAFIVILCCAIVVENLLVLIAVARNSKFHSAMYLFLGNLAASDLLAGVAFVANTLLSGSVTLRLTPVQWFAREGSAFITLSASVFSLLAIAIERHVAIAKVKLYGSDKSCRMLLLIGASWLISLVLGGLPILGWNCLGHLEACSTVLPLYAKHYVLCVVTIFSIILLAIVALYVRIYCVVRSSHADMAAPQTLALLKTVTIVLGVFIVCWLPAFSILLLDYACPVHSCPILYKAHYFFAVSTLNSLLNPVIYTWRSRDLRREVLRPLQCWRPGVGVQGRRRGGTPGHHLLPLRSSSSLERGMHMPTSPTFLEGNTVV

Bcl-2-related protein A1 [24] = molecular target: T5, Bcl-2-related protein A1 (Mus musculus, UniProt Q07440); test: Bfl-1 inhibitors blocking BH3 peptide binding, confirmation, biochemical, TR-FRET, mouse Bfl-1 (AID 621);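 also: TR-FRET binding of GST-Bfl-1 to FITC-labelled Bid peptide via terbium antibody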
T5 sequence (Q07440 whole entry): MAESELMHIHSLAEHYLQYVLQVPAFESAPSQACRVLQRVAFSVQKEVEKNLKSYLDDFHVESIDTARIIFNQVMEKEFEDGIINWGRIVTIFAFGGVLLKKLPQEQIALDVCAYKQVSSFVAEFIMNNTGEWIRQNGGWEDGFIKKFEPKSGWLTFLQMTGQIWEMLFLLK

[25] = molecular target: Glyceraldehyde-3-phosphate dehydrogenase (Homo sapiens, UniProt P04406)
Chain of Glyceraldehyde-3-phosphate dehydrogenase (P04406 whole entry): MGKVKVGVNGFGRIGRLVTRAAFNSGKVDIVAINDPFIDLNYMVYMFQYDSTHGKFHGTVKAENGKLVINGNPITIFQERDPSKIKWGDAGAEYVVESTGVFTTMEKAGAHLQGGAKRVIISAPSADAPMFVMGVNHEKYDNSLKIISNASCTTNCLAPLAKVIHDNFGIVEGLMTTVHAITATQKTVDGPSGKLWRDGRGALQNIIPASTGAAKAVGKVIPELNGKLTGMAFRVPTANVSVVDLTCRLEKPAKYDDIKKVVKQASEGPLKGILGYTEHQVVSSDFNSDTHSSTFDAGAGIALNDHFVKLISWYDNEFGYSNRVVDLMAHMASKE

Bcl-2-related protein A1 [26] = molecular target: T5, Bcl-2-related protein A1; test: Bfl-1 binding inhibitors, SAR follow-up, biochemical, fluorescence polarization (AID 1070)

T1 sequence (P98170 whole entry): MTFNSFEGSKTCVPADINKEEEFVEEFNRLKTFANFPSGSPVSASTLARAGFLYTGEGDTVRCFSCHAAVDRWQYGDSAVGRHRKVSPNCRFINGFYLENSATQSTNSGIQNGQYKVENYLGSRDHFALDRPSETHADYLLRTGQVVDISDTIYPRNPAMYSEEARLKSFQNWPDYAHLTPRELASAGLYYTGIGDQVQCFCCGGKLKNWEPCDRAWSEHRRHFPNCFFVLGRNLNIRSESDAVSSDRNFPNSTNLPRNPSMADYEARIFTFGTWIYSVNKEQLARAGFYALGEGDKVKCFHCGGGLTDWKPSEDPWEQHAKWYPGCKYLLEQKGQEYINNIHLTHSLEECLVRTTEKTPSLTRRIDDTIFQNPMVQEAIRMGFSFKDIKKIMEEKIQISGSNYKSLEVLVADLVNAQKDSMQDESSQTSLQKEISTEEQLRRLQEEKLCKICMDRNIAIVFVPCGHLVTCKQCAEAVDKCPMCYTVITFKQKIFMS

SMILES: CCn1c(CSc2nnc(-c3cccnc3)n2-c2ccccc2C)nc2cc(C(=O)O)ccc21
- IC50 [1]: > 1.56 µM (inactive)
- IC50 (14-3-3 protein gamma): < 0.781 µM (active)
- IC50 [2]: > 0.781 µM (not active)

SMILES: O=C(O)C(Cc1ccccc1)N1C(=O)/C(=C/c2cccc3ccccc23)SC1=S (stereo not given)
- IC50 (HEK293 [3]): > 20 µM (inactive)
- IC50 (Aspartyl aminopeptidase): > 73.5 µM (not active)
- IC50 (Procathepsin L): 28.4 µM (not active)
- IC50 (HEK293 [4]): > 20 µM (inactive)
- EC50 (HEK293 [5]): 16.5 µM (active)
- IC50 (Aminopeptidase N): 14.9 µM (active)
- IC50 [6]: > 50 µM (not active)
- IC50 (HEK293 [7]): 18.5 µM (inactive)

SMILES: O=C(COc1ccc(/C=N/NC(=O)c2cc3ccccc3o2)cc1Br)Nc1ccccc1
- IC50 [8]: > 100 µM (inactive)
- EC50 [9]: > 92.5 µM (inactive)
- EC50 [10]: > 79.4 µM (not active)
- EC50 [11]: 1.97 µM (active)
- EC50 [12]: > 92.5 µM (inactive)
- EC50 [13]: > 79.4 µM (not active)
- EC50 [14]: > 60 µM (not active)
- IC50 [15]: 12.4 µM (active)
- IC50 (Prothrombin): 76.3 µM (active)
- EC50 [16]: 9.11 µM (inconclusive)
- IC50 [17]: > 2.57 µM (not active)
- EC50 [18]: > 79.4 µM (not active)
- EC50 (Mu-type opioid receptor): > 92.5 µM (inactive)

SMILES: Cc1sc2ncnc(NCCc3ccc(S(N)(=O)=O)cc3)c2c1C
- IC50 [19]: 4.23 µM (active)
- EC50 (cells): > 29.9 µM (inactive)
- IC50 (Galanin receptor type 2): > 42 µM (not active)
- EC50 [20]: > 195 µM (not active)
- IC50 (Galanin receptor type 3): 2.95 µM (active)

SMILES: CC(Oc1cc2oc(=O)c3c(c2cc1Cl)CCCC3)C(=O)NCc1ccccn1 (stereo not given)
- IC50 [21]: > 100 µM (active)

SMILES: Fc1ccc(-c2nnc(CSc3nnc(-c4cccs4)o3)o2)cc1
- IC50 [22]: > 100 µM (active)

SMILES: Cc1nn(CC(=O)c2cc(C)n(Cc3ccccc3)c2C)c(C)c1[N+](=O)[O-]
- EC50 [23]: > 30 µM (not active)

SMILES: O=C1C(Cl)=C(N2CCN(CCOCCO)CC2)C(=O)N1c1ccnc(Cl)c1
- IC50 (Bcl-2-related protein A1 [24]): 20.5 µM (active)
- IC50 [25]: > 100 µM (not active)
- IC50 (Bcl-2-related protein A1 [26]): 33.2 µM (active)

Reference: ChEMBL document CHEMBL1201862, “PubChem BioAssay data set” (2004)
